Our source for the IC50 and Ki values is ChEMBL document CHEMBL1909046, “DrugMatrix in vitro pharmacology data”.

pIC50, pKi: −log10 of the molar value.

The target in data set [1] is T1, Alpha-2A adrenergic receptor (Homo sapiens, UniProt P08913). Also: in other assays of this panel Not Active means under 50% inhibition at 10 µM.
T1 sequence (P08913 whole entry): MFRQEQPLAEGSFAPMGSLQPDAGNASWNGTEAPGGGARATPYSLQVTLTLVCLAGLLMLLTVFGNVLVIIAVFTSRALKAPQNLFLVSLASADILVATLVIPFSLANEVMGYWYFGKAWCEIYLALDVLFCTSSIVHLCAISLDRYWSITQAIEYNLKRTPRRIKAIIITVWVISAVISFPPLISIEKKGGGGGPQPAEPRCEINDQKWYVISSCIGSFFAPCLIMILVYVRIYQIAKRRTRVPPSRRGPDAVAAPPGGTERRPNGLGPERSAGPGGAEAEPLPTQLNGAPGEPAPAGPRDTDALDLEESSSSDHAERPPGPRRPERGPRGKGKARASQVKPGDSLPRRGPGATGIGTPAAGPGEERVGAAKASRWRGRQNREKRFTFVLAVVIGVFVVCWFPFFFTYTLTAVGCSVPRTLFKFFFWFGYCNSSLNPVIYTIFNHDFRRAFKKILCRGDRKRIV
It is filed as cell membranes, Sf9, Membrane. To be noted: sf9.

Data set [2] concerns the target T2, Leukotriene C4 synthase (Cavia porcellus, UniProt A6XA80).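 Also: enzyme inhibition assay of leukotriene C4 synthase, using LTA4 as the substrate; in other assays of this panel Not Active means under 50% inhibition at 10 µM.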
T2 sequence (A6XA80 whole entry): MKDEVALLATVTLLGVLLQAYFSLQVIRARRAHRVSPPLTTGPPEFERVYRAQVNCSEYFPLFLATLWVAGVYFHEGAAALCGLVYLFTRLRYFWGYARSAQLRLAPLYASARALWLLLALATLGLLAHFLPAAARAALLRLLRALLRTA
In kind it is tissue-based, Lung.

For data set [3], the target named is Melanocortin receptor 3 (Homo sapiens, UniProt P41968). In kind it is cell membranes, Membrane. To be noted: hek293. Also: in other assays of this panel Not Active means under 50% inhibition at 10 µM.
Data set [4] has as its target T3, Progesterone receptor (Bos taurus, UniProt Q690N0).
T3 sequence (Q690N0 whole entry): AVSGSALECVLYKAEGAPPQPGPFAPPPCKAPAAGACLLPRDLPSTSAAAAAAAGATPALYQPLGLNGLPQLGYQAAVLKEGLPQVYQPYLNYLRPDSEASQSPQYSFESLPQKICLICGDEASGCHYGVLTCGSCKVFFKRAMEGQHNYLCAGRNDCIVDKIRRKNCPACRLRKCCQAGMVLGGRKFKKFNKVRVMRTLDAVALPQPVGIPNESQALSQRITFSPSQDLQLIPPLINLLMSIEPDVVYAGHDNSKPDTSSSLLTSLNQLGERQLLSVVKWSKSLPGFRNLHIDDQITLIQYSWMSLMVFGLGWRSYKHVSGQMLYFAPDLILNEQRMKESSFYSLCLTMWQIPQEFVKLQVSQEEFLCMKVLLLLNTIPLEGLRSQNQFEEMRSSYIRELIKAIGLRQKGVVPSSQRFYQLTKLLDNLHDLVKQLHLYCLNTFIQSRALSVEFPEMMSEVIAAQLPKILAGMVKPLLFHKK
The data set is described as follows: DRUGMATRIX: Progesterone radioligand binding (ligand: [3H] R-5020). In kind it is tissue-based, Uterus. Conditions: Not Active = under 50% inhibition at 10 µM.

Data set [5] addresses Tyrosine-protein kinase Fyn (Homo sapiens, UniProt P06241). Briefly: biochemical. Conditions: for IC50 / Ki: insect cells. It is filed as cell-based, Insect cells.
Data set [6] addresses Cytochrome P450 2D6 (Homo sapiens, UniProt P10635). Conditions: bti-tn-5b1-4.

Broadly, the pIC50 is the IC50 on a negative log10 scale, so that one unit is a factor of ten. The pKi is −log10 of the Ki, conventionally taken in molar units.

Chain of Cytochrome P450 2D6 (P10635 whole entry): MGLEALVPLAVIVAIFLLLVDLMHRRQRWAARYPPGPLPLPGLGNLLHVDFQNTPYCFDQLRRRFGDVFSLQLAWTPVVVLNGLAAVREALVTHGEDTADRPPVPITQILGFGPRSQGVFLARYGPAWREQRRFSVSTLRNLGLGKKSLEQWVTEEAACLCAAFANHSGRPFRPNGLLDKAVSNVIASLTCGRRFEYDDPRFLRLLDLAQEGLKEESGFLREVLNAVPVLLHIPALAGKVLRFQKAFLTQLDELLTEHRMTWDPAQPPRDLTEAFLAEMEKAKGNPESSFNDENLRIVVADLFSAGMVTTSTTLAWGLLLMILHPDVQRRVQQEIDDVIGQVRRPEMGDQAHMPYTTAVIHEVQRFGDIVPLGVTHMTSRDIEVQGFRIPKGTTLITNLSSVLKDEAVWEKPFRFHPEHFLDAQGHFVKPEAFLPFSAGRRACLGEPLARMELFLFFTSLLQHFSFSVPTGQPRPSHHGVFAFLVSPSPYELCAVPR
Chain of Tyrosine-protein kinase Fyn (P06241 whole entry): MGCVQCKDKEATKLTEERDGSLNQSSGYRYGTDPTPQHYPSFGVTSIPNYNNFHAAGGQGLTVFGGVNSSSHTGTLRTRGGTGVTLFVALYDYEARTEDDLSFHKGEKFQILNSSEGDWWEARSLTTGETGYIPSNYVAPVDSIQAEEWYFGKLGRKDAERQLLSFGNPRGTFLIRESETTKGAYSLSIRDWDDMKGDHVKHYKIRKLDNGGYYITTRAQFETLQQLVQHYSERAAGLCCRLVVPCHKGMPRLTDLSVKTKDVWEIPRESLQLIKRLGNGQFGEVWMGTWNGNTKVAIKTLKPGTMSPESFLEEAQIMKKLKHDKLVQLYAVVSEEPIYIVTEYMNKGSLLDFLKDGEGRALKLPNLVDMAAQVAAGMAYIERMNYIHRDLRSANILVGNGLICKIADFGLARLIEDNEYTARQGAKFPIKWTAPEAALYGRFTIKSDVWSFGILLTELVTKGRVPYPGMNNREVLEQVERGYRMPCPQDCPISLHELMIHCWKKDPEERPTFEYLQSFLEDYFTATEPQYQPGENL
Chain of Melanocortin receptor 3 (P41968 whole entry): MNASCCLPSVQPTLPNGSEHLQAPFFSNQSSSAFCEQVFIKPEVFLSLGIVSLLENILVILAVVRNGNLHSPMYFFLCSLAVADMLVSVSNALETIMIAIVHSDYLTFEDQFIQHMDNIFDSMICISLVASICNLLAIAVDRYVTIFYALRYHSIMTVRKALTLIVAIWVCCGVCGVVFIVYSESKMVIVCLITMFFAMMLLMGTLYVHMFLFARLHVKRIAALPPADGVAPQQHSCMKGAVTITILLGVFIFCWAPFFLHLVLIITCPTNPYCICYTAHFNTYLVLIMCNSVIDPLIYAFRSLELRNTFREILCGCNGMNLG

`Nc1ccc(S(=O)(=O)Nc2ncccn2)cc1` [SULFADIAZINE]: the IC50 entry in data set [1], in data set [2], in data set [3], in data set [4], in data set [5] and in data set [6] was “Not Active” each time. Also, in data set [6], the Ki result was “Not Active”.

Regarding `COc1ncnc(NS(=O)(=O)c2ccc(N)cc2)c1OC` [SULFADOXINE], the IC50 result in data set [1], in data set [2], in data set [3], in data set [4], in data set [5] and in data set [6] was “Not Active” throughout. The Ki entry in data set [6] was “Not Active”.

Consider `Nc1ccc(S(=O)(=O)Nc2nccs2)cc1` [SULFATHIAZOLE], for which the IC50 entry in data set [1], in data set [2], in data set [3], in data set [4], in data set [5] and in data set [6] was “Not Active” throughout. The Ki result in data set [6] is given as “Not Active”.

`C[C@]12CC[C@H]3[C@@H](CCC4=CC(=O)CC[C@@]43C)[C@@H]1CC[C@@H]2O` [TESTOSTERONE]: the IC50 result in data set [1], in data set [2], in data set [3], in data set [5] and in data set [6] was “Not Active” in each case. Besides, the negative logarithm of the IC50 (pIC50) in data set [4] (read-out: IC50) is 5.71. For the same compound, the pKi in data set [4] (read-out: Ki) was 6.60. Also, the Ki result in data set [6] is “Not Active”.

For the compound `CC(C)(C)NC[C@H](O)COc1nsnc1N1CCOCC1` [TIMOLOL], the IC50 result in data set [1], in data set [2], in data set [3], in data set [4], in data set [5] and in data set [6] was “Not Active” each time. Besides, the Ki result in data set [6] is “Not Active”.

With `C[C@@H]1C[C@H]2[C@@H]3CCC4=CC(=O)C=C[C@]4(C)C3=CC[C@]2(C)[C@H]1C(=O)CN1CCN(c2cc(N3CCCC3)nc(N3CCCC3)n2)CC1` [TIRILAZAD], the IC50 result in data set [1], in data set [2], in data set [3], in data set [4] and in data set [6] was “Not Active” throughout. Also, the pIC50 in data set [5] (read-out: IC50) was 5.95. For the same compound, the Ki result in data set [6] was “Not Active”.

Take `NC[C@H]1O[C@H](O[C@H]2[C@H](O)[C@@H](O[C@H]3O[C@H](CO)[C@@H](O)[C@H](N)[C@H]3O)[C@H](N)C[C@@H]2N)[C@H](N)C[C@@H]1O` [TOBRAMYCIN]: the IC50 entry in data set [1], in data set [2], in data set [3], in data set [4], in data set [5] and in data set [6] was “Not Active” in each case. Besides, in data set [6], the Ki entry is reported as “Not Active”.

As to `O=C(O)C(Cl)(Cl)Cl` [TRICHLOROACETIC ACID], the IC50 result in data set [1], in data set [2], in data set [3], in data set [4], in data set [5] and in data set [6] was “Not Active” each time. Moreover, the Ki entry in data set [6] is “Not Active”.

On to `CC(=O)O[C@H]1C[C@@H]2CC[C@@H]3[C@H](CC[C@@]4(C)[C@H]3C[C@H]([N+]3(C)CCCCC3)[C@@H]4OC(C)=O)[C@@]2(C)C[C@@H]1N1CCCCC1.[Br-]` [VECURONIUM BROMIDE], for which the IC50 entry in data set [1], in data set [2], in data set [3], in data set [4], in data set [5] and in data set [6] was “Not Active” throughout. The Ki entry in data set [6] is given as “Not Active”.

On to `COc1cc(C(=O)NS(=O)(=O)c2ccccc2C)ccc1Cc1cn(C)c2ccc(NC(=O)OC3CCCC3)cc12` [ZAFIRLUKAST], for which the IC50 result in data set [1], in data set [2], in data set [3], in data set [4], in data set [5] and in data set [6] was “Not Active” each time. In addition, the Ki entry in data set [6] is reported as “Not Active”.

Turning to `Cc1cn([C@H]2C[C@H](N=[N+]=[N-])[C@@H](CO)O2)c(=O)[nH]c1=O` [ZIDOVUDINE], the IC50 entry in data set [1], in data set [2], in data set [3], in data set [4], in data set [5] and in data set [6] was “Not Active” in each case. The Ki entry in data set [6] was “Not Active”.

Consider STANNOUS FLUORIDE, for which the IC50 entry in data set [1], in data set [2], in data set [3], in data set [4], in data set [5] and in data set [6] was “Not Active” throughout. Further, the Ki result in data set [1], in data set [2], in data set [3], in data set [4], in data set [5] and in data set [6] was “Not Active” throughout.

Turning to THIMEROSAL, the figures for the negative logarithm of the IC50 (pIC50) in data set [1] (read-out: IC50) and in data set [6] were 6.27 and 5.52, respectively. Further, the negative-log Ki (pKi) in data set [1] (read-out: Ki) is 6.70. Besides, the IC50 entry in data set [2], in data set [3], in data set [4] and in data set [5] was “Not Active” each time. The Ki result in data set [2], in data set [3], in data set [4] and in data set [5] was “Not Active” throughout.
